Assay results reported in ChEMBL document CHEMBL1141460, “Sodium channel blockers” (J Med Chem, 2007).

How the values were obtained:
[1] = molecular target: Sodium channel protein type 10 subunit alpha (Homo sapiens, UniProt Q9Y5Y9); test: Binding affinity to Nav1.8 sodium channel
[2] = molecular target: Sodium channel protein type 9 subunit alpha (Homo sapiens, UniProt Q15858); test: Binding affinity to Nav1.7 sodium channel
Rattus norvegicus [3] = test: Analgesic activity in ip dosed rat by chung model of neuropathic pain; type: functional
Rattus norvegicus [4] = species: Rattus norvegicus; test: Effect on locomotor activity in rat; type: functional
Rattus norvegicus [5] = test: Analgesic activity in ip dosed rat by CCI model of neuropathic pain; type: functional
Rattus norvegicus [6] = species: Rattus norvegicus; test: Effect on […] in rat by rotarod test; type: functional
[7] = molecular target: Sodium channel protein type 5 subunit alpha (Homo sapiens, UniProt Q14524); test: Inhibition of inactivated human Nav1.5 sodium channel
[8] = molecular target: Sodium channel protein type 2 subunit alpha (Homo sapiens, UniProt Q99250); test: Inhibition of inactivated human Nav1.2 sodium channel

Sequence of Sodium channel protein type 9 subunit alpha (Q15858 whole entry): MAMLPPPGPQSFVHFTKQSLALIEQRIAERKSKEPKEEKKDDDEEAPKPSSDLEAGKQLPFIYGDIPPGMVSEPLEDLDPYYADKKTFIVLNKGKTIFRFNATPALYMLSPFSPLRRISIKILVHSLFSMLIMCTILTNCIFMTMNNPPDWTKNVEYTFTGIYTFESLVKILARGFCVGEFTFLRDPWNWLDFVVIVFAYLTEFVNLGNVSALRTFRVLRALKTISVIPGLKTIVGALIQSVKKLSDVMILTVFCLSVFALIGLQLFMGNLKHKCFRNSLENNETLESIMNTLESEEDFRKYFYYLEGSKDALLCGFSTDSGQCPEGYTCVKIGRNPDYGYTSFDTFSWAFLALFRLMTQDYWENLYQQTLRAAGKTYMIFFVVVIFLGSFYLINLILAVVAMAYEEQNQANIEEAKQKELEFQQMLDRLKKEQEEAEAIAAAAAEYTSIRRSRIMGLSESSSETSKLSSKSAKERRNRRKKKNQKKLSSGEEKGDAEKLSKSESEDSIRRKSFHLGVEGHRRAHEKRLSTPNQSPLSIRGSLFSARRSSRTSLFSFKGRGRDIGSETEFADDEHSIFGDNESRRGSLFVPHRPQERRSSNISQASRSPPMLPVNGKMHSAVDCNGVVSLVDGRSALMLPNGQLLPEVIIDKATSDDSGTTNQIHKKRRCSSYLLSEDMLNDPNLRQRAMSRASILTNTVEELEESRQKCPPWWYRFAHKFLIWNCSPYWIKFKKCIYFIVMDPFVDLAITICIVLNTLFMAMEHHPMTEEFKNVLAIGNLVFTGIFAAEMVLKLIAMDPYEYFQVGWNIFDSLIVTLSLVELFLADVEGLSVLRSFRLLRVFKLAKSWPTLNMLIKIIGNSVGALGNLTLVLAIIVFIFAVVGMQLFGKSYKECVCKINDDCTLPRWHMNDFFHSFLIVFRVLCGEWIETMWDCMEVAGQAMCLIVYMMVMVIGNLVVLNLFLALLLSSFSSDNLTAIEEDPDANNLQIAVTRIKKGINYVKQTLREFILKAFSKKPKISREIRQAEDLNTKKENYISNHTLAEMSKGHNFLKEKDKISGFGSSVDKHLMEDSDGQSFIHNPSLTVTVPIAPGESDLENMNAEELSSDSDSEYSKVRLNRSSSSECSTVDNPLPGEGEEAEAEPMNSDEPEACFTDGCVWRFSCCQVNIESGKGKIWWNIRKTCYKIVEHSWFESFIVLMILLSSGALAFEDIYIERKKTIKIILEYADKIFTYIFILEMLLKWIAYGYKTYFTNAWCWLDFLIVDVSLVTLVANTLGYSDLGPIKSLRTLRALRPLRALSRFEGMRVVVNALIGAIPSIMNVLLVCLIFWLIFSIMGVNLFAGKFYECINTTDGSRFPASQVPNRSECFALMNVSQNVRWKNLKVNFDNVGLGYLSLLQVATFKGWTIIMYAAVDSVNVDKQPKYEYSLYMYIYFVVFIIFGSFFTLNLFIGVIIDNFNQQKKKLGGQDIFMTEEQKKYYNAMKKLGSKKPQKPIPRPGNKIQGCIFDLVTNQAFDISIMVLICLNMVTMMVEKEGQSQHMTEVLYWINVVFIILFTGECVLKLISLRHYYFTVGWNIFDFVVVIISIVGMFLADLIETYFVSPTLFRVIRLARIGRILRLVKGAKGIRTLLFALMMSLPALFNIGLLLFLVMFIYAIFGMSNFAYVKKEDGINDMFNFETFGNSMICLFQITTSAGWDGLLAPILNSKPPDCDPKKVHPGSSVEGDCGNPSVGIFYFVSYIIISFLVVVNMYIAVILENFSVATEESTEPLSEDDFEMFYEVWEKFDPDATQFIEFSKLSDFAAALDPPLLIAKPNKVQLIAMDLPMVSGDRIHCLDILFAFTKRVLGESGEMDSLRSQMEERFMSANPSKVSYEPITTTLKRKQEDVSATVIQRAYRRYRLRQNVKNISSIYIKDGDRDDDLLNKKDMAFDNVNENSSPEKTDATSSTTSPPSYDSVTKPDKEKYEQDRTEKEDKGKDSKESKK
Sequence of Sodium channel protein type 10 subunit alpha (Q9Y5Y9 whole entry): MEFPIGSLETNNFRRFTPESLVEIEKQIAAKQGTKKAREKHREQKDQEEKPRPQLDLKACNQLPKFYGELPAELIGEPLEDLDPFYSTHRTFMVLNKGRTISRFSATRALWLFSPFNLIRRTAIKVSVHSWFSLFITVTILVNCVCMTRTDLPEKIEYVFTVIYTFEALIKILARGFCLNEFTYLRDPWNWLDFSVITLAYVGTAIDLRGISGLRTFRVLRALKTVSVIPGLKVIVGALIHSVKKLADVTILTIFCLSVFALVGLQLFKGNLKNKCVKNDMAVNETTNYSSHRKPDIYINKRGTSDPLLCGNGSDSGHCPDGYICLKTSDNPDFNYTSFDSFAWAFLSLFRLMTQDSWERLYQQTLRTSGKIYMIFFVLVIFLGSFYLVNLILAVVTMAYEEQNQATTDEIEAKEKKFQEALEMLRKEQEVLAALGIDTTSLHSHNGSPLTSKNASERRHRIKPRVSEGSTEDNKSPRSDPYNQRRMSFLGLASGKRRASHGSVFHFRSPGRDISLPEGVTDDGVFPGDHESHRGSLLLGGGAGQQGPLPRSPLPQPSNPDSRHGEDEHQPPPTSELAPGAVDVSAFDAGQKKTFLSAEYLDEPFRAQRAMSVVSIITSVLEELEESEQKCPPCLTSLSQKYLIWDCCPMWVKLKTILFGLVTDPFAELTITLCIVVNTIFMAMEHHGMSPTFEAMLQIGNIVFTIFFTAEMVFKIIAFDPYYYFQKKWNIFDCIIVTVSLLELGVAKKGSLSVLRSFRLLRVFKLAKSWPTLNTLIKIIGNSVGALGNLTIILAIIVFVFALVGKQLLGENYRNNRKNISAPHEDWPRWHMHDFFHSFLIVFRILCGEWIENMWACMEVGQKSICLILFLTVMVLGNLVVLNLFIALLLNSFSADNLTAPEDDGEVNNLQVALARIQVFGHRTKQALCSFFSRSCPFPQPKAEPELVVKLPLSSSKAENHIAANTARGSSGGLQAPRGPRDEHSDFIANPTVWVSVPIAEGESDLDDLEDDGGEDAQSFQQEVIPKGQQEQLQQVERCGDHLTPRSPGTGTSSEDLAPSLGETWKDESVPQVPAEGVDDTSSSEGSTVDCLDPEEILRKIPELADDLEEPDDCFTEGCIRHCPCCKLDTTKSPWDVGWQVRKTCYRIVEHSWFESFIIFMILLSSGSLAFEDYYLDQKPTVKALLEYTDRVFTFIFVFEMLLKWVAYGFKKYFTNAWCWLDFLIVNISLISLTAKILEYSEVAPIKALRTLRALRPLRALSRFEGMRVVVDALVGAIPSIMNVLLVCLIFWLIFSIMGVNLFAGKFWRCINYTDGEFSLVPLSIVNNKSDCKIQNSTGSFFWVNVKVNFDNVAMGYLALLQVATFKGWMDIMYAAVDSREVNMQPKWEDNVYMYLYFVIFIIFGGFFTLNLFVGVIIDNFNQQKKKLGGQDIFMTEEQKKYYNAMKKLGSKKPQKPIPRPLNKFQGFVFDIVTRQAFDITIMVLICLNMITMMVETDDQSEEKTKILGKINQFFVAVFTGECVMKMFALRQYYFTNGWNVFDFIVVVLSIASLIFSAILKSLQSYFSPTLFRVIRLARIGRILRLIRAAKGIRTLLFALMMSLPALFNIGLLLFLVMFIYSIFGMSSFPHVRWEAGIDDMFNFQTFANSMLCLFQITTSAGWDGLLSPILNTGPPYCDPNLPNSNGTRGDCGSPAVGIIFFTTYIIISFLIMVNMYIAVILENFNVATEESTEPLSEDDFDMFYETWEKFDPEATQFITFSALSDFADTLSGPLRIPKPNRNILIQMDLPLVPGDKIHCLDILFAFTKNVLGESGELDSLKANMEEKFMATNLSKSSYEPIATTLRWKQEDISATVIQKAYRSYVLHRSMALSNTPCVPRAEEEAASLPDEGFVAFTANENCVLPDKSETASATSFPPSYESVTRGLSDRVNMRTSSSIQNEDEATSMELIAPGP

Row | Ki [1] [µM] | Ki [2] [µM] | IC50 [8] [µM] | Compound | ED50 (Rattus norvegicus [3]) [µM] | ED50 (Rattus norvegicus [4]) [µM] | ED50 (Rattus norvegicus [5]) [µM] | ED50 (Rattus norvegicus [6]) [µM] | IC50 [7] [µM]
1 | 0.18 | 0.25 | – | CN(Cc1ccc(-c2ccccc2S(N)(=O)=O)cc1)C(=O)[C@@H]1CCC[C@H]1C(=O)NCc1ccc(OC(F)(F)F)cc1 | – | – | – | – | –
2 | – | – | 7.18 | COc1cc(NC(=O)c2ccc(-c3ccc(Cl)cc3)o2)cc(OC)c1 | 47 | >300 | 86 | >300 | 7.44
